Measured values published in patent US20240228458A1, “PYRIMIDINE DERIVATIVE HAVING PROTEIN KINASE INHIBITORY ACTIVITY, AND THERAPEUTIC PHARMACEUTICAL COMPOSITION COMPRISING SAME” (THERAPEX CO., LTD., priority 2021, published 2024).

Experiments:
Format in all cases: cell-based
[1] = test system: Ba/F3 cells expressing del19/T790M/C797S (EGFR-DTC); assay: Growth inhibition (GI50) of Ba/F3 cells expressing del19/T790M/C797S (EGFR-DTC), Celltiter glo; details: Mus musculus, BaF3, 72 h
How it was run: (§1)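 Ba/F3 cells carrying each EGFR variant were plated at 100,000 cells/ml; after 4 h, compound was added as 10-point 4-fold dilutions (top stock 2 mM, 0.5% DMSO). After 72 h at 37 °C, viability was read by CellTiter-Glo; GI50 is the molar concentration (μM) giving 50% growth inhibition.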

[2] = test system: Ba/F3 cells expressing EGFR-wt; assay: Growth inhibition (GI50) of Ba/F3 cells expressing EGFR-wt, Celltiter glo; details: Mus musculus, BaF3, 72 h
How it was run: as §1

[3] = test system: Ba/F3 cells expressing L858R/T790M/C797S (EGFR-LTC); assay: Growth inhibition (GI50) of Ba/F3 cells expressing L858R/T790M/C797S (EGFR-LTC), Celltiter glo; details: Mus musculus, BaF3, 72 h
How it was run: as §1

[4] = test system: Ba/F3 cells expressing L858R/T790M (EGFR-LT); assay: Growth inhibition (GI50) of Ba/F3 cells expressing L858R/T790M (EGFR-LT), Celltiter glo; details: Mus musculus, BaF3, 72 h
Description: (§2) In this experimental example, a determination was made as to whether the compounds prepared in Examples 1-283 have the ability to inhibit the growth of Ba/F3 cells expressing EGFR-wt, del19/T790M/C797S (EGFR-DTC), L858R/T790M/C797S (EGFR-LTC), del19/T790M (EGFR-DT), and L858R/T790M (EGFR-LT) variants.
(§3) The parental Ba/F3 cell line is a population of cells that are not introduced with EGFR variants. Specifically, 100 μl of a cell line expressing each variant was plated in a 96-well plate at a density of 100,000 cells/ml. 10-point, 4-fold serial dilutions of each compound were prepared, starting at 2 mM. After 4 h, 0.5 μl of the compound (0.5% DMSO) was added, followed by incubation at 37° C. and 5% CO2 for 72 h. After incubation, the number of viable cells was measured using a Celltiter glo assay kit (Promega) and the GI50 of the compound was determined. The term “GI50” refers to the molar concentration (μM) of the compound required for 50% growth inhibition of cells.

[5] = test system: parental Ba/F3 cell line; assay: Growth inhibition (GI50) of the parental Ba/F3 cell line (not introduced with EGFR variants), Celltiter glo; details: Mus musculus, BaF3, 72 h, parental Ba/F3 cells
How it was run: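 Parental Ba/F3 cells (100,000 cells/ml) were treated with 10-point, 4-fold compound dilutions (0.5% DMSO; top stock 2 mM) for 72 h at 37 °C, 5% CO2. Viability was read by CellTiter-Glo; GI50 is the concentration (μM) giving 50% growth inhibition.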

[6] = test system: Ba/F3 cells expressing del19/T790M (EGFR-DT); assay: Growth inhibition (GI50) of Ba/F3 cells expressing del19/T790M (EGFR-DT), Celltiter glo; details: Mus musculus, BaF3, 72 h
Description: as §2, §3

Structure (SMILES)	GI50 [1] [µM]	GI50 [2] [µM]	GI50 [3] [µM]	GI50 [4] [µM]	GI50 [6] [µM]	GI50 [5] [µM]
COc1nc(N2CCN(C(C)=O)CC2)ccc1Nc1ncc(Cl)c(Nc2ccc(F)cc2NS(C)(=O)=O)n1 [Example 19, N-(2-((2-((6-(4-acetylpiperazin-1-yl)-2-methoxypyridin-3-yl)amino)-5-chloropyrimidin-4-yl)amino)-5-fluorophenyl)methanesulfonamide]	0.5 to 2	0.5 to 2	0.5 to 2	0.5 to 2	0.5 to 2	2 to 10
COc1nc(N2C[C@@H](C)N(C)[C@@H](C)C2)ccc1Nc1ncc(Cl)c(Nc2ccc(F)cc2NS(C)(=O)=O)n1 [Example 20, N-(2-((5-chloro-2-((2-methoxy-6-((3S,5R)-3,4,5-trimethylpiperazin-1-yl)pyridin-3-yl)amino)pyrimidin-4-yl)amino)-5-fluorophenyl)methanesulfonamide]	0.5 to 2	2 to 10	0.5 to 2	0.5 to 2	0.5 to 2	2 to 10
COc1nc(N2CCC(O)CC2)ccc1Nc1ncc(Cl)c(Nc2ccc(F)cc2NS(C)(=O)=O)n1 [Example 21, N-(2-((5-chloro-((6-(4-hydroxypiperidin-1-yl)-2-methoxypyridin-3-yl)amino)pyrimidin-4-yl)amino)-5-fluorophenyl)methanesulfonamide]	0.5 to 2	2 to 10	0.5 to 2	2 to 10	0.5 to 2	> 10
COc1nc(N2CCC(N3CCN(C)CC3)CC2)ccc1Nc1ncc(Cl)c(N(c2ccc3scnc3c2NS(C)(=O)=O)S(C)(=O)=O)n1 [Example 111, N-(5-chloro-2-((2-methoxy-6-(4-(4-methylpiperazin-1-yl)piperidin-1-yl)pyridin-3-yl)amino)pyrimidin-4-yl)-N-(4-(methylsulfonamido)benzo[d]thiazol-5-yl)methanesulfonamide]	0.5 to 2	2 to 10		2 to 10	0.5 to 2	2 to 10

More lines, main results first:

GI50 [1] [µM]	GI50 [2] [µM]	GI50 [3] [µM]	GI50 [4] [µM]	GI50 [6] [µM]	Structure (SMILES)	GI50 [5] [µM]
0.5 to 2	0.5 to 2	0.5 to 2	0.5 to 2	0.5 to 2	COc1nc(N2CCS(=O)(=O)CC2)ccc1Nc1ncc(Cl)c(Nc2ccccc2NS(C)(=O)=O)n1 [Example 6]	> 10
0.1 to 0.5	0.5 to 2	0.1 to 0.5	0.1 to 0.5	0.001 to 0.025	COc1nc(N2CCC(N3CCN(C)CC3)CC2)c(C)cc1Nc1ncc(Cl)c(Nc2ccc(F)cc2NS(C)(=O)=O)n1 [Example 15, N-(2-((5-chloro-2-((2-methoxy-5-methyl-6-(4-(4-methylpiperazin-1-yl)piperidin-1-yl)pyridin-3-yl)amino)pyrimidin-4-yl)amino)-5-fluorophenyl)methanesulfonamide]	0.5 to 2
0.5 to 2	0.025 to 0.1	0.5 to 2	0.5 to 2	0.5 to 2	COc1nc(N2CCN(CCO)CC2)ccc1Nc1ncc(Cl)c(Nc2ccc(F)cc2NS(C)(=O)=O)n1 [Example 18]	0.1 to 0.5
0.001 to 0.025	0.1 to 0.5	0.001 to 0.025	0.001 to 0.025	0.001 to 0.025	COc1cc(N2CCC(N3CCN(C)CC3)CC2)c(Cl)cc1Nc1ncc(Cl)c(Nc2cc(Cl)ccc2NS(C)(=O)=O)n1 [Example 151, N-(4-chloro-2-((5-chloro-2-((5-chloro-2-methoxy-4-(4-(4-methylpiperazin-1-yl)piperidin-1-yl)phenyl)amino)pyrimidin-4-yl)amino)phenyl)methanesulfonamide]	
0.025 to 0.1	0.1 to 0.5	0.025 to 0.1			COc1cc(N2CCC(N3CCN(C)CC3)CC2)c(C)cc1Nc1ncc(Br)c(Nc2cc(Cl)ccc2-c2cnn[nH]2)n1 [Example 187]	0.5 to 2
0.025 to 0.1	0.1 to 0.5	0.025 to 0.1			COc1cc(N2CCC(N3CCN(C)CC3)CC2)c(Cl)cc1Nc1ncc(Br)c(Nc2cc(Cl)ccc2-c2cnn[nH]2)n1 [Example 195]	0.1 to 0.5
